{
  "source": "paper PMC6222666",
  "about": "“Rutacecarpine Inhibits Angiogenesis by Targeting the VEGFR2 and VEGFR2-Mediated Akt/mTOR/p70s6k Signaling Pathway” (Molecules : A Journal of Synthetic Chemistry and Natural …, 2018)",
  "biological_target": "T1, VEGFR2 (vascular endothelial growth factor receptor 2) (Homo sapiens, UniProt P35968)",
  "T1 construct": "gene KDR",
  "T1 sequence (P35968 20-1356)": "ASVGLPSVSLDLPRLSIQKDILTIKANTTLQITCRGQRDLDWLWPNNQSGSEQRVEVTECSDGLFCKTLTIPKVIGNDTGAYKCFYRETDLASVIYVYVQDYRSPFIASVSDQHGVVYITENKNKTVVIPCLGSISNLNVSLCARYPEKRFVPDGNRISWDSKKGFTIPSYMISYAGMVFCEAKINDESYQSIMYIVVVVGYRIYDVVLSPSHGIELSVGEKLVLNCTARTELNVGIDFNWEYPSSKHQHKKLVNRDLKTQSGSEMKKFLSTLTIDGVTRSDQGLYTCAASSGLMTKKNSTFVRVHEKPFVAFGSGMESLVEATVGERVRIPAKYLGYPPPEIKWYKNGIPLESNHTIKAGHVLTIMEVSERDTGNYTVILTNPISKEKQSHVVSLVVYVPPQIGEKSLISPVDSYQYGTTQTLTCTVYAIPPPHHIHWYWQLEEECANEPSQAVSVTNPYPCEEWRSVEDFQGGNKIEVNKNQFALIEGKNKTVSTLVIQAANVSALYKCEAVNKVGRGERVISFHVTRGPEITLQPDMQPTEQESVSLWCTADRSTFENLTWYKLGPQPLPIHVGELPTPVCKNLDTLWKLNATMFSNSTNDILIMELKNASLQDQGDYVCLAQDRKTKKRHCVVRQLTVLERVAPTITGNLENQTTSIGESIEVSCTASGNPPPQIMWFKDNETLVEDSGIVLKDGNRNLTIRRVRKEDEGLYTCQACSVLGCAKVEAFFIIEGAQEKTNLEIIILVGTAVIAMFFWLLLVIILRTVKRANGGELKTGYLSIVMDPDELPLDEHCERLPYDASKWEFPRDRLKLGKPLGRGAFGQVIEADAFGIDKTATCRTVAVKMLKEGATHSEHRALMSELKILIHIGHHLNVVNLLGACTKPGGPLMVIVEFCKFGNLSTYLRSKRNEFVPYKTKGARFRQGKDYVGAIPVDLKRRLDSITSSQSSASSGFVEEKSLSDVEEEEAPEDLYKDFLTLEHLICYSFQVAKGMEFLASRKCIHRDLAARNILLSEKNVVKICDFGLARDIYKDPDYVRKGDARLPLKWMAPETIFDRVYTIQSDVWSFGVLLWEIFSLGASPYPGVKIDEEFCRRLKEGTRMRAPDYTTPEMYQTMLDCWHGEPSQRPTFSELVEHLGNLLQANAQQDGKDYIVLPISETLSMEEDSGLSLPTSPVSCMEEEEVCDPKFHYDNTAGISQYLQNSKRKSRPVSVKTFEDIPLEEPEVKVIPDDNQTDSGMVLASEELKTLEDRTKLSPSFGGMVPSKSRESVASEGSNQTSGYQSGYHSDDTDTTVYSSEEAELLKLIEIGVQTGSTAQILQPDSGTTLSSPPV",
  "assay": "SPR (Biacore T200, VEGFR2 immobilized on CM5 chip); also ELISA-based kinase assay IC50 […]",
  "assay_type": "binding",
  "data": [
    {"smiles": "O=c1c2ccccc2nc2n1CCc1c-2[nH]c2ccccc12", "note": "[rutaecarpine]", "values": [
      {"measurement": "Kd", "result": 471, "unit": "nM"}
    ]}
  ]
}
